This note sets out measurements from PubChem BioAssay AID328 (DTP/NCI, 2004).

The test system of this experiment is BDF1 mice, P388 leukemia ip, median survival T/C. In words: NCI In Vivo Anticancer Drug Screen. Data for tumor model P388 Leukemia (intraperitoneal) in B6D2F1 (BDF1) mice. Particulars: endpoint: median survival time, higher = longer survival. The method, boiled down:
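Survival ratio, drug arm over vehicle arm, in mice with a transplanted tumour.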

[1] abbreviates: dose: 50.0 mg/kg/injection, schedule: Q04DX003 (ip), vehicle: saline.
The mark [2] stands for this setting: dose: 25.0 mg/kg/injection, schedule: Q01DX009 (ip), vehicle: saline with Tween-80.
Where [3] appears, read: dose: 100.0 mg/kg/injection, schedule: Q04DX003 (ip), vehicle: saline.
Setting [4] is: dose: 200.0 mg/kg/injection, schedule: Q04DX003 (ip), vehicle: saline.
Setting [5] is: dose: 6.25 mg/kg/injection, schedule: Q01DX009 (ip), vehicle: saline.
The mark [6] stands for this setting: dose: 12.5 mg/kg/injection, schedule: Q01DX009 (ip), vehicle: saline.
[7] abbreviates: dose: 50.0 mg/kg/injection, schedule: Q01DX009 (ip), vehicle: saline with Tween-80.
Where [8] appears, read: dose: 100.0 mg/kg/injection, schedule: Q01DX009 (ip), vehicle: saline with Tween-80.
Where [9] appears, read: dose: 200.0 mg/kg/injection, schedule: Q01DX009 (ip), vehicle: saline with Tween-80.
Where [10] appears, read: dose: 100.0 mg/kg/injection, schedule: Q01DX009 (ip), vehicle: saline.
[11] abbreviates: dose: 200.0 mg/kg/injection, schedule: Q01DX009 (ip), vehicle: saline.
[12] abbreviates: dose: 50.0 mg/kg/injection, schedule: Q01DX009 (ip), vehicle: saline.
Setting [13] is: dose: 100.0 mg/kg/injection, schedule: Q04DX003 (ip), vehicle: Klucel (hydroxypropylcellulose) (HPC).
The mark [14] stands for this setting: dose: 200.0 mg/kg/injection, schedule: Q04DX003 (ip), vehicle: Klucel (hydroxypropylcellulose) (HPC).
[15] abbreviates: dose: 400.0 mg/kg/injection, schedule: Q04DX003 (ip), vehicle: Klucel (hydroxypropylcellulose) (HPC).

“And” between values parts separate entries of the source, which are not always exact repeats. Equal values may be shown once. Inconclusive results and toxic doses are left out.

For `NC(Cc1cccc(NP(=S)(N2CC2)N2CC2)c1)C(=O)O` (stereo not drawn), the T/C is, setting by setting: (dose: 22.0 mg/kg/injection, schedule: Q04DX003 (ip), vehicle: saline) 120 % of control; (dose: 35.0 mg/kg/injection, schedule: Q04DX003 (ip), vehicle: saline) 112 % of control; under setting [1], 150 % of control; (dose: 115.0 mg/kg/injection, schedule: Q04DX003 (ip), vehicle: saline) 172 % of control; (dose: 175.0 mg/kg/injection, schedule: Q04DX003 (ip), vehicle: saline) 268 % of control; (dose: 264.0 mg/kg/injection, schedule: Q04DX003 (ip), vehicle: saline) 272 % of control. Besides, the T/C by setting is: (dose: 400.0 mg/kg/injection, schedule: Q04DX003 (ip), vehicle: saline) 272 % of control; (dose: 600.0 mg/kg/injection, schedule: Q04DX003 (ip), vehicle: saline) 86 % of control.

As to `O=C1OC(=O)c2c(Br)c(Br)c(Br)c(Br)c21`, the T/C is, setting by setting: under setting [2], 109 % of control; (dose: 56.25 mg/kg/injection, schedule: Q01DX009 (ip), vehicle: saline with Tween-80) 90 % of control; (dose: 75.0 mg/kg/injection, schedule: Q01DX009 (ip), vehicle: saline with Tween-80) 113 % of control; (dose: 150.0 mg/kg/injection, schedule: Q01DX009 (ip), vehicle: saline with Tween-80) 109 % of control.

As for `O=C(Nc1cccc(C(F)(F)F)c1)Nc1c(Oc2ccc(Cl)c(Cl)c2)ccc(Cl)c1S(=O)(=O)O`, the T/C reads like this: under setting [1], 90 % of control; under setting [3], 100 % of control; under setting [4], 113 % of control.

With `CCN(CC)CCCCCCNc1cc(OC)c(F)c2c(C)ccnc12`, the T/C (dose: 3.13 mg/kg/injection, schedule: Q01DX009 (ip), vehicle: saline) is 109 % of control; the T/C under setting [5] was 107 % of control; the T/C under setting [6] is 116 % of control.

On to `COc1ccc(COC(=O)NC(CCS(C)=O)C(=O)O)cc1` (stereo not drawn), for which the T/C is 91 % of control under setting [7], 99 % of control under setting [8] and 99 % of control under setting [9].

As for `O=N[O-].O=N[O-].O=N[O-].[Co+3].[NH-]CC[N-]CC[NH-]`, the T/C under setting [7] is 111 % of control.

For the compound `N#CCSc1ncnc2nc[nH]c12`, the T/C is, setting by setting: (dose: 30.0 mg/kg/injection, schedule: Q01DX010 (ip), vehicle: saline) 95 % of control and 100 % of control; (dose: 60.0 mg/kg/injection, schedule: Q01DX010 (ip), vehicle: saline) 100 % of control; (dose: 120.0 mg/kg/injection, schedule: Q01DX010 (ip), vehicle: saline) 100 % of control.

For the compound `COC1CCCCC1Br` (stereo not drawn), the T/C under setting [10] was 113 % of control; the T/C under setting [11] is 109 % of control; the T/C (dose: 400.0 mg/kg/injection, schedule: Q01DX009 (ip), vehicle: saline) was 104 % of control.

`c1ccc(OP2OCCO2)cc1`: the T/C under setting [12] was 104 % of control; the T/C under setting [10] is 104 % of control; the T/C under setting [3] is 87 % of control; the T/C under setting [11] is 95 % of control; the T/C under setting [4] is 112 % of control.

`CC(=O)CC(c1ccc2c(c1)OCO2)c1c(O)c2ccccc2oc1=O` (stereo not drawn): the T/C reads like this: (dose: 0.39 mg/kg/injection, schedule: Q01DX009 (ip), vehicle: saline) 88 % of control; (dose: 0.78 mg/kg/injection, schedule: Q01DX009 (ip), vehicle: saline) 106 % of control; (dose: 0.78 mg/kg/injection, schedule: Q04DX003 (ip), vehicle: saline) 89 % of control; (dose: 1.56 mg/kg/injection, schedule: Q01DX009 (ip), vehicle: saline) 106 % of control; (dose: 1.56 mg/kg/injection, schedule: Q04DX003 (ip), vehicle: saline) 98 % of control; (dose: 3.12 mg/kg/injection, schedule: Q04DX003 (ip), vehicle: saline) 89 % of control. Besides, the T/C is 89 % of control (dose: 6.25 mg/kg/injection, schedule: Q04DX003 (ip), vehicle: saline) and 102 % of control (dose: 12.5 mg/kg/injection, schedule: Q04DX003 (ip), vehicle: saline).

Turning to `CCCCCCCCOc1cc2c(c(OC(C)=O)c1)-c1ccccc1CC2`, the T/C was 97 % of control (dose: 100.0 mg/kg/injection, schedule: Q04DX003 (ip), vehicle: saline with Tween-80); 99 % of control (dose: 200.0 mg/kg/injection, schedule: Q04DX003 (ip), vehicle: saline with Tween-80); 99 % of control (dose: 400.0 mg/kg/injection, schedule: Q04DX003 (ip), vehicle: saline with Tween-80).

For the compound `Cn1c(=O)c(-c2ccccc2)[n+]([O-])c2ccccc21`, the T/C was 98 % of control under setting [2], 107 % of control under setting [7], 100 % of control under setting [8] and 113 % of control under setting [9].

Consider `CC(c1ccccc1)C1N(c2ccccc2)CCN1c1ccccc1` (stereo not drawn), for which the T/C was 107 % of control (dose: 50.0 mg/kg/injection, schedule: Q04DX003 (ip), vehicle: Klucel (hydroxypropylcellulose) (HPC)); 96 % of control under setting [13]; 107 % of control under setting [14]; 111 % of control under setting [15].

As for `O=C(Nc1ccc(Cl)c(Cl)c1)Nc1c(Oc2ccc(Cl)c(Cl)c2)ccc(Cl)c1S(=O)(=O)O`, the T/C runs as follows: under setting [5], 118 % of control; under setting [6], 109 % of control; (dose: 25.0 mg/kg/injection, schedule: Q01DX009 (ip), vehicle: saline) 104 % of control; (dose: 35.0 mg/kg/injection, schedule: Q01DX009 (ip), vehicle: saline) 118 % of control; under setting [12], 105 % of control; (dose: 55.0 mg/kg/injection, schedule: Q01DX009 (ip), vehicle: saline) 113 % of control. Also, the T/C (dose: 80.0 mg/kg/injection, schedule: Q01DX009 (ip), vehicle: saline) is 111 % of control.

`O/C(=C\C(=S)S)c1ccc(Cl)cc1`: the T/C runs as follows: (dose: 0.39 mg/kg/injection, schedule: Q04DX003 (ip), vehicle: saline with Tween-80) 100 % of control; (dose: 0.78 mg/kg/injection, schedule: Q01DX009 (ip), vehicle: saline with Tween-80) 97 % of control; (dose: 0.78 mg/kg/injection, schedule: Q04DX003 (ip), vehicle: saline with Tween-80) 92 % of control and 106 % of control (2×); (dose: 1.56 mg/kg/injection, schedule: Q01DX009 (ip), vehicle: saline with Tween-80) 118 % of control; (dose: 1.56 mg/kg/injection, schedule: Q04DX003 (ip), vehicle: saline with Tween-80) 97 % of control and 113 % of control; (dose: 3.12 mg/kg/injection, schedule: Q01DX009 (ip), vehicle: saline with Tween-80) 106 % of control. Moreover, the T/C reads like this: (dose: 3.12 mg/kg/injection, schedule: Q04DX003 (ip), vehicle: saline with Tween-80) 95 % of control and 100 % of control and 120 % of control; (dose: 6.25 mg/kg/injection, schedule: Q01DX009 (ip), vehicle: saline with Tween-80) 112 % of control; (dose: 6.25 mg/kg/injection, schedule: Q04DX003 (ip), vehicle: saline with Tween-80) 88 % of control and 103 % of control; (dose: 12.5 mg/kg/injection, schedule: Q01DX009 (ip), vehicle: saline with Tween-80) 86 % of control.

On to `Cc1ccc(S(=O)(=O)N/N=C2/C(=N/NS(=O)(=O)c3ccc(C)cc3)C3CCC2C3)cc1`, for which the T/C (dose: 50.0 mg/kg/injection, schedule: Q01DX009 (ip), vehicle: other) was 105 % of control; the T/C (dose: 100.0 mg/kg/injection, schedule: Q01DX009 (ip), vehicle: other) is 96 % of control; the T/C (dose: 200.0 mg/kg/injection, schedule: Q01DX009 (ip), vehicle: other) is 95 % of control.

In the case of `OC12C3CCCC1CCCC2CCC3` (stereo not drawn), the T/C reads like this: under setting [13], 100 % of control and 108 % of control; (dose: 100.0 mg/kg/injection, schedule: Q04DX003 (ip), vehicle: saline sonified) 108 % of control; under setting [14], 91 % of control and 100 % of control; (dose: 200.0 mg/kg/injection, schedule: Q04DX003 (ip), vehicle: saline sonified) 90 % of control and 108 % of control; under setting [15], 100 % of control; (dose: 400.0 mg/kg/injection, schedule: Q04DX003 (ip), vehicle: saline sonified) 109 % of control and 108 % of control.
